According to patent publication US11602519B1, “Method for preventing myocardial infarction using eucalyptol” (KING FAISAL UNIVERSITY, priority 2021, dated 2023):

Experiments:
Format in all cases: in vivo, Wister rats
[1] = system: ISO induced MI animals; assay: Infarct size determination (TTC staining) in ISO-induced MI; settings: pretreatment 100, 200 mg/kg, 21 days, vs ISO induced MI group
Experimental: Animals were distributed into five groups randomly (n=6). The animals in normal and eucalyptol control groups were administered either saline or eucalyptol for 3 weeks and then saline (s.c) on the last two days of the experiment (20th and 21st days). The animals in the myocardial infarction (MI) control group were given saline orally for 3 weeks, then challenged with Isoproterenol (ISO) (85 mg/kg, s.c.) as stated before on the 20th and 21st days to induce MI. The animals in the eucalyptol pretreatment groups were pretreated with eucalyptol (either 100 or 200 mg/kg) orally for 3 weeks then confronted with ISO (85 mg/kg s.c.) on the last two days of the experiment. All experimental animals were killed 24 hrs after the second dose of ISO. Subsequent to ECG determination, blood samples were collected and the hearts were directly removed and balanced using an animal weighing scale prior to storage. The obtained blood samples were centrifuged and the serum from different experimental groups was frozen in −80° C. for further biochemical examinations. Frozen hearts were cut into 4-5 transverse incubated in 10% TTC (dissolved phosphate buffer, pH 7.4) for 25 min. at room temperature, fixed using 10% formaldehyde, and finally quantified using Image J® program (National Institutes of Health, University of Wisconsin).

[2] = system: ISO induced MI animals; assay: Cardiac enzymes by ELISA in ISO-induced MI
Experimental: (§1) Animals were distributed into five groups randomly (n=6). The animals in normal and eucalyptol control groups were administered either saline or eucalyptol for 3 weeks and then saline (s.c) on the last two days of the experiment (20th and 21st days). The animals in the myocardial infarction (MI) control group were given saline orally for 3 weeks, then challenged with Isoproterenol (ISO) (85 mg/kg, s.c.) as stated before on the 20th and 21st days to induce MI. The animals in the eucalyptol pretreatment groups were pretreated with eucalyptol (either 100 or 200 mg/kg) orally for 3 weeks then confronted with ISO (85 mg/kg s.c.) on the last two days of the experiment. All experimental animals were killed 24 hrs after the second dose of ISO. The extracted heart tissues were homogenated in 10% phosphate buffer to be used for the measurement of numerous biochemical parameters, including cardiac enzymes, apoptotic markers, inflammatory mediators' markers, and total protein. ELISA kits were consumed to measure cardiac enzymes: CPK, CK-MB, cTnT, and cTnI; apoptotic markers: Caspase 3 and Caspase 9 and inflammatory mediators: TNF-α, IL-1β, and NFκB. All ELISA Kits were used according to the manufacturer's protocols and using a microplate reader SpectraMax i.3× (Molecular Devices, USA).

[3] = system: Bax, Bcl2, Caspase 3 and 9; assay: Apoptotic status within the myocardium in ISO-induced MI (Bax, Bcl-2 mRNA; Caspase 3 and 9)
Experimental: as §1, with “USA). Real-time PCR was preformed according to known techniques. Primer sequences used in this study were as follows: Bcl-2-[…] NO: 1), Bcl-2-[…] ID NO:2), Bax-[…] NO: 3), Bax-[…] ID NO: 4), […] ID NO: 5), […] ID NO: 6), […] ID NO: 7), […] ID NO: 8), MyD88 -[…] ID NO: 9), […] ID NO: 11), […] ID NO: 12), β-[…] NO: 13), β-[…] ID NO: 14).” for “USA).”

[4] = system: TLR pathway (TLR 2, TLR 4, MYD 88, and TRIF); assay: TLR pathway protein expression by Western blot in cardiac tissue, ISO-induced MI
Experimental: Animals were distributed into five groups randomly (n=6). The animals in normal and eucalyptol control groups were administered either saline or eucalyptol for 3 weeks and then saline (s.c) on the last two days of the experiment (20th and 21st days). The animals in the myocardial infarction (MI) control group were given saline orally for 3 weeks, then challenged with Isoproterenol (ISO) (85 mg/kg, s.c.) as stated before on the 20th and 21st days to induce MI. The animals in the eucalyptol pretreatment groups were pretreated with eucalyptol (either 100 or 200 mg/kg) orally for 3 weeks then confronted with ISO (85 mg/kg s.c.) on the last two days of the experiment. All experimental animals were killed 24 hrs after the second dose of ISO. For detection of the Toll-Like Receptors pathway protein expressions, Western blot was performed according to known methods. Values were mentioned as mean SEM (n=6). Densitometry inquiry was accomplished via Image software for Western analysis. Statistical analysis appraisal was done via GraphPad Prism 5.

[5] = system: HSP-60 and inflammatory markers (TNF-α, IL-6 and NFκB); assay: HSP-60 and inflammatory mediators in ISO-induced MI
Experimental: as §1

[6] = system: TLR pathway (TLR 2, TLR 4, MYD 88, and TRIF); assay: TLR pathway mRNA expression by real-time PCR in ISO-induced MI; settings: pretreatment 100, 200 mg/kg, 21 days, vs ISO induced MI control group
Experimental: Animals were distributed into five groups randomly (n=6). The animals in normal and eucalyptol control groups were administered either saline or eucalyptol for 3 weeks and then saline (s.c) on the last two days of the experiment (20th and 21st days). The animals in the myocardial infarction (MI) control group were given saline orally for 3 weeks, then challenged with Isoproterenol (ISO) (85 mg/kg, s.c.) as stated before on the 20th and 21st days to induce MI. The animals in the eucalyptol pretreatment groups were pretreated with eucalyptol (either 100 or 200 mg/kg) orally for 3 weeks then confronted with ISO (85 mg/kg s.c.) on the last two days of the experiment. All experimental animals were killed 24 hrs after the second dose of ISO. Real-time PCR was preformed according to known techniques. Primer sequences used in this study were as follows: Bcl-2-[…] NO: 1), Bcl-2-[…] ID NO:2), Bax-[…] NO: 3), Bax-[…] ID NO: 4), […] ID NO: 5), […] ID NO: 6), […] ID NO: 7), […] ID NO: 8), MyD88 -[…] ID NO: 9), […] ID NO: 11), […] ID NO: 12), β-[…] NO: 13), β-[…] ID NO: 14).

[7] = system: ISO induced MI animals; assay: Heart rate and ECG recording in ISO-induced myocardial infarction; settings: for Heart Rate / P Wave / P-R interval / QRS complex / QT interval / R-R interval / ST segment: mean ± SD, n=6
Experimental: Animals were distributed into five groups randomly (n=6). The animals in normal and eucalyptol control groups were administered either saline or eucalyptol for 3 weeks and then saline (s.c) on the last two days of the experiment (20th and 21st days). The animals in the myocardial infarction (MI) control group were given saline orally for 3 weeks, then challenged with Isoproterenol (ISO) (85 mg/kg, s.c.) as stated before on the 20th and 21st days to induce MI. The animals in the eucalyptol pretreatment groups were pretreated with eucalyptol (either 100 or 200 mg/kg) orally for 3 weeks then confronted with ISO (85 mg/kg s.c.) on the last two days of the experiment. All experimental animals were killed 24 hrs after the second dose of ISO. At the end of the experiments, urethane-anesthetized rats (1.5 g/kg) were prone positioned to obtain uninterrupted ECG recordings using noninvasive computerized ECG apparatus from. Kent Scientific (USA). Heart rate and ECG components including ST segment, wave. QT, P-R and R-R intervals, and QRS complex were electronically measured.

[8] = eucalyptol control group, no ISO
[9] = pretreatment 100, 200 mg/kg, 21 days, vs ISO induced MI group
[10] = pretreatment (100 and 200 mg/kg, 21 days) vs MI animals
[11] = Eucalyptol 100 mg/kg orally 21 days, then ISO
[12] = Eucalyptol 200 mg/kg orally 21 days, then ISO
[13] = Eucalyptol control group, no ISO

CC12CCC(CC1)C(C)(C)O2 [Eucalyptol, 1,8-cineole]
infarcted area magnitude (infarct size) [1]: significant infarcted restricting action
cardiac enzymes (CPK, CK-MB, cTnT, cTnI) [2, 8]: normal
Cardiac Tropinine I (cTnI) [2, 9]: significantly diminished
Cardiac Tropinine T (cTnT) [2, 9]: significantly diminished
Creatine Kinase Myocardial Bound (CK-MB) [2, 9]: significantly diminished
Creatine Phosphokinase (CPK) [2, 9]: significantly diminished
Bax, Bcl2, Caspase 3 and 9 [3, 8]: no effect
Bax relative mRNA expression [3, 10]: deteriorated
Bcl-2 mRNA expression [3, 10]: intensified
Caspase 3 and 9 activities [3, 10]: deteriorated
TLR pathway protein content [4, 8]: no effect
post-myocardial infarction intensification of TLR pathway protein expression (TLR 2, TLR 4, MYD 88, TRIF) ([4]; pretreatment 100 and 200 mg/kg, cardiac tissue, Western blot): lessened
HSP-60, IL-6 and NFκB, 200 mg/kg compared with 100 mg/kg ([5]; dose of 200 mg/kg vs 100 mg/kg): further significant reduction
TNF-α, 200 mg/kg compared with 100 mg/kg ([5]; dose of 200 mg/kg vs 100 mg/kg): non-significant difference
HSP-60 and inflammatory markers (TNF-α, IL-6 and NFκB) [5, 8]: no effect
myocardial infarction elevation in HSP 60 ([5]; pretreatment 100 and 200 mg/kg): diminished
myocardial infarction elevation in inflammatory mediators (TNF-α, IL-6 and NFκB) ([5]; pretreatment 100 and 200 mg/kg): diminished
MYD 88 relative mRNA expression level [6]: considerably (p<0.05) declined
TLR 2 relative mRNA expression level [6]: considerably (p<0.05) declined
TLR 4 relative mRNA expression level [6]: considerably (p<0.05) declined
TRIF relative mRNA expression level [6]: considerably (p<0.05) declined
Heart Rate ([7]; Eucalyptol 100 mg/kg orally 21 days, then ISO 85 mg/kg s.c.): 294 ± 21.06 ≠ beat/min
P Wave [7, 11]: 0.015 ± 0.001 ≠ sec.
P-R interval [7, 11]: 0.212 ± 0.012 ≠ sec.
QRS complex [7, 11]: 0.038 ± 0.001 ≠ sec.
QT interval [7, 11]: 0.064 ± 0.003 ≠ sec.
R-R interval [7, 11]: 0.180 ± 0.004 ≠ sec.
ST segment [7, 11]: 0.061 ± 0.009 ≠ mV
Heart Rate ([7]; Eucalyptol 200 mg/kg orally 21 days, then ISO 85 mg/kg s.c.): 337.16 ± 14.98 ≠ beat/min
P Wave [7, 12]: 0.015 ± 0.001 ≠ sec.
P-R interval [7, 12]: 0.222 ± 0.05 ≠ sec.
QRS complex [7, 12]: 0.035 ± 0.001 ≠ sec.
QT interval [7, 12]: 0.061 ± 0.003 ≠ sec.
R-R interval [7, 12]: 0.183 ± 0.056 ≠ sec.
ST segment [7, 12]: 0.046 ± 0.009 ≠ mV
P Wave [7, 13]: 0.019 ± 0.002 s
P-R interval [7, 13]: 0.230 ± 0.012 s
QRS complex [7, 13]: 0.042 ± 0.001 s
QT interval [7, 13]: 0.047 ± 0.002 s
R-R interval [7, 13]: 0.222 ± 0.012 s
ST segment [7, 13]: 0.025 ± 0.002 mV
Heart Rate ([7]; Eucalyptol control group: eucalyptol for 3 weeks, saline s.c. instead of ISO): 398.16 ± 43.67 beat/min
heart rate and electrocardiographic (ECG) patterns [7, 8]: normal
HR as well as ECG alterations [7, 9]: reversed
